Tests used:
Ki67 = Ki67 staining of tumor sections (cell proliferation); type: in vivo, mouse (athymic nude); conditions: ImageJ; p < 0.01
Procedure: Tumor sections were blocked for 1 h in blocking buffer, and incubated with FITC-conjugated anti-CD31 (BD biosciences, 1:100, 20 min) then anti-rat secondary (1:250, 20 min), or anti-Ki67 (Abcam, 1:250, 20 min) then anti-rabbit secondary (1:250, 20 min). Images were collected using ZEISS LSM-880 Confocal Laser Scanning Microscope (Carl Zeiss Meditec, Inc., Jena, Germany). Mander’s correlation coefficients were determined using the JACoP plugin in ImageJ (National Institute of Health, Bethesda, MD, USA) for the colocalization analysis. To characterize CD31 and Ki67 expression, the area fraction of the positive pixels was measured for each image using the Measurement Tool in ImageJ. Section averages were entered into Prism to find overall means for each treatment group and tested for statistical significance between groups using the Student’s t-test.
The drug dosage was calculated for each treatment to achieve the same weekly amount of Sb225002 given per animal. Tumor volume was measured with calipers twice weekly until day 19, at which time the tumors were harvested for cell proliferation (Ki67) and angiogenesis (CD31) analysis, and CXCR2 IHC staining.

KPC mice = conditions: cited from earlier work
Text: CXCR2 antagonists have been explored in non-cancer lung diseases (e.g., NCT01255592, NCT01006616) and in certain cancers such as castration-resistant prostate cancer (NCT03177187) and squamous cell carcinoma of the head and neck (NCT02499328).

CXCR2 = conditions: cited from earlier work
Text: To further evaluate pharmacodynamics, we characterized CXCR2 inhibition as a surrogate for the delivery of SB225002. Tumors from all groups were fixed and paraffin embedded for immunohistochemistry staining. […] Furthermore, the inhibition of angiogenesis has been cited as a contributing factor to th ...

[1] = all dose levels up to 240 mg; cited from earlier work
Text: While mounting evidence points to a role of bitter taste receptors in cancer epithelial cells and in Tuft cells, this report, is to our knowledge, the first indication that TAS2R9 is expressed on CAFs. The fact that TAS2R9 is overexpressed in 7.33% of human PDAC tissue, and that its expression in pancreatic CAFs is 57-fold higher than in the human dermal fibroblast raises the interesting question of what role TAS2R9 may play in CAFs. In particular, the revelation that TAS2R9 mRNA expression ...

[2] = tested on: CAFs isolated from the stroma of PDAC patients; conditions: cited from earlier work; for Specificity and selectivity for CAFs: CAFs isolated from the stroma of PDAC patients
[3] = tested on: PDAC patient-derived CAFs (TAS2R9); assay: Phage display-based pulldown from PDAC patient-derived CAFs with MS/MS identification; type: binding, human; conditions: SDS-PAGE, compared with WT M13KE phage and phAPPIMSV
Procedure: Thus, we hypothesized that their binding partners could serve as potential cellular markers and therapeutic targets for CAFs. Using a phage display-based functional proteomics approach, wild-type (WT) M13KE phage or phage displaying CAF selective peptides (phHTTIPKV and phAPPIMSV) were incubated with PDAC patient-derived CAFs allowing the phage to serve as “bait.” Phage were chemically modified to crosslink to their cell surface binding partner, then phage pull-down samples were resolved via SDS-PAGE. […] In-proteo ELISA experiments were performed to evaluate the specific binding of phHTTIPKV to recombinant human TAS2R9 (rhTAS2R9). Phage displaying KTLLPTP (phKTLLPTP), a PDAC epithelial cell-specific peptide, served as a negative control. […] Therefore, we pursued validation of TAS2R9 as HTTIPKV’s target and as a novel CAF-selective cell surface marker.
(§1) Figure 1 TAS2R9 expression in CAFs isolated from human PDAC. (A) Phage pulldowns from PDAC patient-derived CAFs by the M13Ke (lane 1) and CAF-specific phages, phAPPIMSV and phHTTIPKV (lane 2 and 3). […] (B) 4 × 10^9 pfu phHTTIPKV and a PDAC specific phage, phKTLLPTP, were applied to rhTAS2R9 to determine the absorbance of phage binding to rhTAS2R9 at 650 nm. The absorbance of both phage were normalized to the absorbance detected from rhTAS2R9 bound to the wild-type M13Ke phage. n = 3, * p < 0.05. […]

[4] = tested on: recombinant human TAS2R9 (rhTAS2R9); assay: Phage ELISA on recombinant human TAS2R9 (in-proteo ELISA); type: binding; conditions: 4 × 10^9 pfu phage; absorbance 650 nm, 35 min after TMB; normalized to M13KE; 1 h RT; n = 3, p < 0.05
Procedure: Thus, we hypothesized that their binding partners could serve as potential cellular markers and therapeutic targets for CAFs. Using a phage display-based functional proteomics approach, wild-type (WT) M13KE phage or phage displaying CAF selective peptides (phHTTIPKV and phAPPIMSV) were incubated with PDAC patient-derived CAFs allowing the phage to serve as “bait.” Phage were chemically modified to crosslink to their cell surface binding partner, then phage pull-down samples were resolved via SDS-PAGE. […] In-proteo ELISA experiments were performed to evaluate the specific binding of phHTTIPKV to recombinant human TAS2R9 (rhTAS2R9). Phage displaying KTLLPTP (phKTLLPTP), a PDAC epithelial cell-specific peptide, served as a negative control. […]
as §1, with “PDAC.” for “PDAC. (A) Phage pulldowns from PDAC patient-derived CAFs by the M13Ke (lane 1) and CAF-specific phages, phAPPIMSV and phHTTIPKV (lane 2 and 3).”
About 100 μL of 0.1 μg/mL rhTAS2R9 (Novus Biological, Littleton, CO, USA) was plated in 96-well plates overnight at 4 °C. […] The absorbance was measured on a microplate reader at 650 nm at 35 min post addition of TMB

[5] = biological target: T1, recombinant human TAS2R9 (rhTAS2R9) (human) (UniProt Q9NYW1); assay: ELISA; 0.1 ug/mL rhTAS2R9 coated on 96-well plates overnight at 4 °C, 5% milk block, 40 uL phage at 1 x 10^8 pfu/uL for 1 h at room temperature, HRP anti-M13 antibody, absorbance at 650 nm; normalised to wild-type M13KE phage
T1 sequence (Q9NYW1 whole entry, looked up): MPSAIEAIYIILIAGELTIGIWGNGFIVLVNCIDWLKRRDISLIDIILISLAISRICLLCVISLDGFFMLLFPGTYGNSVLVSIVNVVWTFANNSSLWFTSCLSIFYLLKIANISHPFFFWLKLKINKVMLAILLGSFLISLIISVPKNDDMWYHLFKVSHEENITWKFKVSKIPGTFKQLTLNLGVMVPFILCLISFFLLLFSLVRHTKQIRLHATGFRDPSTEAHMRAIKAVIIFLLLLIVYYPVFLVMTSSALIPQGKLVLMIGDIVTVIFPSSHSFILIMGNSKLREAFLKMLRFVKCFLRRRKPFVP

O=C(Nc1ccc([N+](=O)[O-])cc1O)Nc1ccccc1Br [SB225002]
Ki67+ area fraction (cell proliferation) (Ki67): significant reduction in Ki67+ area fraction | Survival of KPC mice (KPC mice): profoundly prolong survival in KPC mice | Contribution to anti-tumor effects: angiogenesis (CXCR2): inhibition of angiogenesis has been cited as a contributing factor to the anti-tumor effects

CC(=O)[O-].CC[N+](CC)(CC(=O)Nc1c(C)cccc1C)Cc1ccccc1 [pan-TAS2R agonist, Denatonium Acetate]
Tolerability in phase one clinical trial [1]: well tolerated at all dose levels up to 240 mg

APPIMSV
Specificity and selectivity for CAFs [2]: high specificity and selectivity for CAFs

HTTIPKV
Unique band in phage pulldown [3]: presence of a unique band | Specificity and selectivity for CAFs [2]: high specificity and selectivity for CAFs | Selectivity for CAFs in vitro and in vivo ([2]; signature database of 56 cell lines and tissues): selective for CAFs across in vitro and in vivo experiments

HTTIPKV [phHTTIPKV]
Increase in specific binding to rhTAS2R9 compared to phKTLLPTP [4]: 2.72 fold

B1: phage displaying HTTIPKV (phHTTIPKV) (peptide)
peptide: HTTIPKV
fold specific binding against phKTLLPTP (each normalised to M13KE phage) [5]: 2.72 fold

— publication PMC10058050, “A Bitter Taste Receptor as a Novel Molecular Target on Cancer-Associated Fibroblasts in Pancreatic Ductal Adenocarcinoma” (Pharmaceuticals, 2023)
